The values below are quoted from earlier work in US8952066B2, “Pharmaceutical/cosmetic, E.G., anti-acne compositions comprising at least one naphthoic acid compound, benzoyl peroxide and at least one film-forming agent” (Galderma Research & Development, priority 2007, dated 2015).

Where two headings read alike, the source gives them in different places.

For data set [1] the following is noted: in presence of the benzoyl peroxide-based formulation.
For data set [2] the following is noted: 40° C.

As for `CC1=C(/C=C/C(C)=C/C=C/C(C)=C/C(=O)O)C(C)(C)CCC1` [tretinoin], the “Degradation of the retinoid” value in data set [1] (in 2 hours) was 50%; in data set [1] (in 24 hours), 95%.
On to `COc1ccc(-c2ccc3cc(C(=O)O)ccc3c2)cc1C12CC3CC(CC(C3)C1)C2` [adapalene, 6-[3-(1-adamantyl)-4-methoxyphenyl]-2-naphthoic acid], for which, in data set [1] (for 24 hours), the “Degradation of the retinoid (in words)” value is “no degradation”.
Consider `O=C(OOC(=O)c1ccccc1)c1ccccc1` [benzoyl peroxide], for which the Degradation time in data set [2] (in PEG 400 (0.5 mg/g)) was 1.4 days; in data set [2] (in ethanol), 29 days; in data set [2] (in propylene glycol), 53 days.
